Read-outs that look alike come from different tables or passages of the source.
Legend:
Format in all cases: cell-based
K-562 = assay: SRB colorimetric cell growth inhibition assay, K-562; conditions: Homo sapiens; for GI50 / IC (TGI): K562, K-562; for GI50: GI=growth inhibition, read-out: GI50 K-562; for IC (TGI): TGI=total growth inhibition (cytostatic effect), read-out: TGI K-562; for CC50: K562, read-out: LC50 K-562, K-562, LC=cell killing (cytotoxic effect)
Summary of the method: (§1)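 Growth inhibition (GI), cytostatic total growth inhibition (TGI) and cytotoxic cell-kill (LC) parameters were calculated from SRB-stained cultures held under constant compound exposure, triplicates averaged.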

A-549 = assay: SRB colorimetric cell growth inhibition assay, A-549; conditions: Homo sapiens; for GI50 / IC (TGI): A549, A-549; for GI50: GI=growth inhibition, read-out: GI50 A-549; for IC (TGI): TGI=total growth inhibition (cytostatic effect), read-out: TGI A-549; for CC50: A549, read-out: LC50 A-549, A-549, LC=cell killing (cytotoxic effect)
Summary of the method: as §1

SK-MEL-28 = assay: SRB colorimetric cell growth inhibition assay, SK-MEL-28; conditions: Homo sapiens; for GI50 / IC (TGI): SK-MEL-28, MEL-28; for GI50: GI=growth inhibition, read-out: GI50 MEL-28; for IC (TGI): TGI=total growth inhibition (cytostatic effect), read-out: TGI MEL-28; for CC50: SK-MEL-28, read-out: LC50 MEL-28, MEL-28, LC=cell killing (cytotoxic effect)
Summary of the method: as §1

HT-29 = assay: SRB colorimetric cell growth inhibition assay, HT-29; conditions: Homo sapiens; for GI50 / IC (TGI): HT-29, HT-29; for GI50: GI=growth inhibition, read-out: GI50 HT-29; for IC (TGI): TGI=total growth inhibition (cytostatic effect), read-out: TGI HT-29; for CC50: HT-29, read-out: LC50 HT-29, HT-29, LC=cell killing (cytotoxic effect)
Summary of the method: as §1

LoVo = assay: SRB colorimetric cell growth inhibition assay, LoVo; conditions: Homo sapiens, LoVo; for CC50: read-out: LC50 LOVO, LOVO, LC=cell killing (cytotoxic effect); for GI50: GI=growth inhibition, read-out: GI50 LOVO; for IC (TGI): TGI=total growth inhibition (cytostatic effect), read-out: TGI LOVO
Summary of the method: as §1

LoVo-Dox = assay: SRB colorimetric cell growth inhibition assay, LoVo-Dox (MDR)
Summary of the method: as §1

DU-145 = assay: SRB colorimetric cell growth inhibition assay, DU-145; conditions: Homo sapiens; for GI50 / IC (TGI): DU-145, DU-145; for GI50: GI=growth inhibition, read-out: GI50 DU-145; for IC (TGI): TGI=total growth inhibition (cytostatic effect), read-out: TGI DU-145; for CC50: DU-145, read-out: LC50 DU-145, DU-145, LC=cell killing (cytotoxic effect)
Summary of the method: as §1

LNCaP = assay: SRB colorimetric cell growth inhibition assay, LNCaP; conditions: Homo sapiens, LNCaP; for GI50 / IC (TGI): LN-caP; for GI50: GI=growth inhibition, read-out: GI50 LN-caP; for IC (TGI): TGI=total growth inhibition (cytostatic effect), read-out: TGI LN-caP; for CC50: read-out: LC50 LN-caP, LN-caP, LC=cell killing (cytotoxic effect)
Summary of the method: as §1

SK-BR-3 = assay: SRB colorimetric cell growth inhibition assay, SK-BR-3; conditions: Homo sapiens; for GI50 / IC (TGI): SK-BR-3, SK-BR-3; for GI50: GI=growth inhibition, read-out: GI50 SK-BR-3; for IC (TGI): TGI=total growth inhibition (cytostatic effect), read-out: TGI SK-BR-3; for CC50: SK-BR-3, read-out: LC50 SK-BR-3, SK-BR-3, LC=cell killing (cytotoxic effect)
Summary of the method: as §1

IGROV = assay: SRB colorimetric cell growth inhibition assay, IGROV; conditions: Homo sapiens, IGROV; for CC50: read-out: LC50 IGROV, IGROV, LC=cell killing (cytotoxic effect); for GI50: GI=growth inhibition, read-out: GI50 IGROV; for IC (TGI): TGI=total growth inhibition (cytostatic effect), read-out: TGI IGROV
Summary of the method: as §1

IGROV-ET = assay: SRB colorimetric cell growth inhibition assay, IGROV-ET (ET-743 resistant); conditions: Homo sapiens; for GI50 / IC (TGI): IGROV-ET; for GI50: GI=growth inhibition, read-out: GI50 IGROV-ET; for IC (TGI): TGI=total growth inhibition (cytostatic effect), read-out: TGI IGROV-ET; for CC50: read-out: LC50 IGROV-ET, IGROV-ET, LC=cell killing (cytotoxic effect)
Summary of the method: as §1

HeLa = assay: SRB colorimetric cell growth inhibition assay, HeLa; conditions: Homo sapiens, HeLa; for CC50: read-out: LC50 HELA, HELA, LC=cell killing (cytotoxic effect); for IC (TGI): read-out: TGI HELA; for GI50: GI=growth inhibition, read-out: GI50 HELA
Summary of the method: as §1

HeLa-APL = assay: SRB colorimetric cell growth inhibition assay, HeLa-APL (aplidine resistant); conditions: Homo sapiens; for GI50: read-out: GI50 HELA-APL; for CC50: read-out: LC50 HELA-APL, HELA-APL, LC=cell killing (cytotoxic effect); for IC (TGI): read-out: TGI HELA-APL
Summary of the method: as §1

PANC-1 = assay: SRB colorimetric cell growth inhibition assay, PANC-1; conditions: Homo sapiens; for GI50 / IC (TGI): PANC-1, PANC-1; for GI50: GI=growth inhibition, read-out: GI50 PANC-1; for IC (TGI): TGI=total growth inhibition (cytostatic effect), read-out: TGI PANC-1; for CC50: PANC-1, read-out: LC50 PANC-1, PANC-1, LC=cell killing (cytotoxic effect)
Summary of the method: as §1

[1] = Homo sapiens, LOVO-DOX; GI=growth inhibition; read-out: GI50 LOVO-DOX
[2] = Homo sapiens, read-out: LC50 LOVO-DOX, LOVO-DOX; LC=cell killing (cytotoxic effect)

`COc1cc(-c2c3n(c4c(=O)oc5cc(OC(=O)[C@@H](N)CO)c(OC)cc5c24)CCc2c-3cc(OC)c(OC)c2OC(=O)[C@@H](N)CO)ccc1OC(=O)[C@@H](N)CO` [Compound 59] gave a GI50 (K-562) of 1.64 µM, an IC (TGI) (K-562) of 3.45 µM and a CC50 (K-562) of 7.27 µM. The GI50 (A-549) was 1.7 µM, the IC (TGI) (A-549) was 3.29 µM and the CC50 (A-549) was 6.36 µM. For the same compound, the GI50 (SK-MEL-28) was 1.62 µM, the IC (TGI) (SK-MEL-28) was 3.04 µM and the CC50 (SK-MEL-28) was 5.67 µM. The GI50 (HT-29) was 1.97 µM, the IC (TGI) (HT-29) was 3.7 µM and the CC50 (HT-29) was 6.98 µM. For the same compound, the CC50 (LoVo) was 5.67 µM, the GI50 (LoVo) was 1.13 µM and the IC (TGI) (LoVo) was 2.53 µM. The GI50 (LoVo-Dox; [1]) was 0.528 µM, the IC (TGI) (LoVo-Dox; Homo sapiens, LOVO-DOX; TGI=total growth inhibition (cytostatic effect); read-out: TGI LOVO-DOX) was 1.6 µM and the CC50 (LoVo-Dox; [2]) was 4.56 µM. It also gave a GI50 (DU-145) of 1.39 µM, an IC (TGI) (DU-145) of 2.6 µM and a CC50 (DU-145) of 4.86 µM. It also gave a GI50 (LNCaP) of 1.37 µM, an IC (TGI) (LNCaP) of 2.63 µM and a CC50 (LNCaP) of 5.06 µM. It also gave a GI50 (SK-BR-3) of 0.372 µM, an IC (TGI) (SK-BR-3) of 1.15 µM and a CC50 (SK-BR-3) of 4.11 µM. The CC50 (IGROV) was 7.67 µM, the GI50 (IGROV) was 0.899 µM and the IC (TGI) (IGROV) was 2.63 µM. It also gave a GI50 (IGROV-ET) of 0.632 µM, an IC (TGI) (IGROV-ET) of 2.04 µM and a CC50 (IGROV-ET) of 5.98 µM. For the same compound, the CC50 (HeLa) was 6.44 µM, the IC (TGI) (HeLa) was 2.98 µM and the GI50 (HeLa) was 1.37 µM. For the same compound, the GI50 (HeLa-APL) was 1.88 µM, the CC50 (HeLa-APL) was 8.12 µM and the IC (TGI) (HeLa-APL) was 3.9 µM. It also gave a GI50 (PANC-1) of 1.1 µM, an IC (TGI) (PANC-1) of 3.48 µM and a CC50 (PANC-1) of 8.81 µM.

Compound `COc1cc(-c2c3n(c4c(=O)oc5cc(OC(=O)[C@H](CO)NC(=O)OC(C)(C)C)c(OC)cc5c24)CCc2c-3cc(OC)c(OC)c2OC(=O)[C@H](CO)NC(=O)OC(C)(C)C)ccc1OC(=O)[C@H](CO)NC(=O)OC(C)(C)C` [Compound 60] has a GI50 (K-562) of 0.697 µM, an IC (TGI) (K-562) of 2.19 µM and a CC50 (K-562) of 6.87 µM. For the same compound, the GI50 (A-549) was 1.62 µM, the IC (TGI) (A-549) was 4.63 µM and the CC50 (A-549) was 9.15 µM. The GI50 (SK-MEL-28) was 1.17 µM, the IC (TGI) (SK-MEL-28) was 4.14 µM and the CC50 (SK-MEL-28) was 9.15 µM. For the same compound, the GI50 (HT-29) was 2.42 µM, the IC (TGI) (HT-29) was 5.88 µM and the CC50 (HT-29) was 9.15 µM. For the same compound, the CC50 (LoVo) was 7.94 µM, the GI50 (LoVo) was 1.61 µM and the IC (TGI) (LoVo) was 3.58 µM. It also gave a GI50 (LoVo-Dox; [1]) of 2.82 µM, a CC50 (LoVo-Dox; [2]) of 9.15 µM and an IC (TGI) (LoVo-Dox; Homo sapiens; LOVO-DOX; TGI=total growth inhibition (cytostatic effect); read-out: TGI LOVO-DOX) of 9.15 µM. For the same compound, the GI50 (DU-145) was 1.18 µM, the IC (TGI) (DU-145) was 2.65 µM and the CC50 (DU-145) was 5.97 µM. For the same compound, the GI50 (LNCaP) was 0.55 µM, the IC (TGI) (LNCaP) was 1.79 µM and the CC50 (LNCaP) was 5.25 µM. For the same compound, the GI50 (SK-BR-3) was 0.491 µM, the IC (TGI) (SK-BR-3) was 1.64 µM and the CC50 (SK-BR-3) was 8.58 µM. The CC50 (IGROV) was 9.15 µM, the GI50 (IGROV) was 0.682 µM and the IC (TGI) (IGROV) was 3.29 µM. The GI50 (IGROV-ET) was 2.56 µM, the IC (TGI) (IGROV-ET) was 6.16 µM and the CC50 (IGROV-ET) was 9.15 µM. It also gave a CC50 (HeLa) of 6.13 µM, an IC (TGI) (HeLa) of 2.51 µM and a GI50 (HeLa) of 1.02 µM. The GI50 (HeLa-APL) was 3.49 µM, the CC50 (HeLa-APL) was 9.15 µM and the IC (TGI) (HeLa-APL) was 9.15 µM. For the same compound, the GI50 (PANC-1) was 0.747 µM, the IC (TGI) (PANC-1) was 4.4 µM and the CC50 (PANC-1) was 9.15 µM.

Reference: patent publication US7396837B2, “Antitumoral analogs of lamellarins” (Pharma Mar, S.A.U., priority 2002, dated 2008)
